# Results: publication PMC7143940, “Enhancing the Immune Response of a Nicotine Vaccine with Synthetic Small “Non-Natural” Peptides” (Molecules, 2020)
# “Also recorded” adds a separate entry of the source. Where a SMILES comes first, the peptide text is derived from it.
# Test: Peptide stability in human plasma (RP-HPLC)
# Type: in vitro ADME
# Details: human plasma (EDTA blood, healthy volunteers), 37 °C, various time points, RP-HPLC with 0.1% trifluoroacetic acid, absorbance at 210 nm, average ± SEM of three separate experiments; result in words
# Procedure: Figure 1 Peptide stability in plasma. Pentapeptide 1 was incubated in human plasma at 37 °C. Levels of the peptide remaining after various time points were analyzed by RP-HPLC in the presence of 0.1% trifluoroacetic acid and detected by absorbance at 210 nm. Peptide amounts were calculated relative to quantities determined at time point zero, and data shown are the average ± SEM of three separate experiments.
# Blood was collected from healthy volunteers in EDTA blood collection tubes (BD Vacutainer, Mississauga, ON, Canada). Plasma was collected after centrifugation at 900× g and 20 °C for 10 min with decreased deceleration, aliquoted, and stored at −80 °C. All subjects gave their informed consent for inclusion before they participated in the study. The study was conducted in accordance with the Declaration of Helsinki, with all protocols approved by the Research Ethics Board at Health Sciences North Research Institute (Protocol # 18-061).
# The stability of pentapeptide 1 in human plasma was analyzed using previously published methods.
smiles,measurement,value
"NCCCC[C@H](N)C(=O)N[C@@H](Cc1c[nH]c2ccccc12)C(=O)N[C@@H](CS)C(=O)N[C@@H](CCC(=O)O)C(=O)N[C@@H](CS)C(=O)O [Peptide 1, KWCEC] (H-KWCEC-OH)",Plasma stability: peptide remaining relative to time point zero,No statistical difference was found between the two time points; also recorded: not recognized and cleaved by proteolytic enzymes
